Measurements published in ChEMBL document CHEMBL2203135, “Novel progesterone receptor modulators: 4-aryl-phenylsulfonamides” (Bioorg Med Chem Lett, 2012).

How the values were obtained:
Plasma = test: Average drug concentration in ovariectomized rhesus monkey plasma at 5 mg/kg/day, po; format: ADME, organism-based, Macaca mulatta; parameters: route oral; conditions: in vivo
[1] = AUC (0 to last) in in ovariectomized rhesus monkey at 5 mg/kg/day, po; format: ADME, organism-based, Macaca mulatta; parameters: dose 5 mg/kg/day, time 0 - last, route oral; conditions: female, plasma
[2] = Cmax in in ovariectomized rhesus monkey at 5 mg/kg/day, po; format: ADME, organism-based, Macaca mulatta; parameters: dose 5 mg/kg/day, route oral; conditions: female, in vivo
[3] = Oral bioavailability in rat at 2 mg/kg; format: ADME, organism-based; conditions: in vivo
[4] = Half life in rat at 2 mg/kg, po; format: ADME, organism-based; parameters: dose 2 mg/kg, route oral; conditions: in vivo
[5] = AUC (0 to infinity) in rat at 2 mg/kg, iv; format: ADME, organism-based; parameters: time infinity, dose 2 mg/kg, route intravenous; conditions: plasma
[6] = Half life in rat at 2 mg/kg, iv; format: ADME, organism-based; parameters: dose 2 mg/kg, route intravenous; conditions: in vivo
[7] = Volume of distribution at steady state in rat at 2 mg/kg, iv; format: ADME, organism-based; parameters: dose 2 mg/kg, route intravenous; conditions: in vivo, read-out: Vdss
[8] = Oral bioavailability in cynomolgus monkey at 2 mg/kg; format: ADME, organism-based, Macaca fascicularis; conditions: in vivo
[9] = AUC (0 to infinity) in cynomolgus monkey at 2 mg/kg, po; format: ADME, organism-based, Macaca fascicularis; parameters: time infinity, dose 2 mg/kg, route oral; conditions: plasma
[10] = Clearance in cynomolgus monkey at 2 mg/kg, iv; format: ADME, organism-based, Macaca fascicularis; parameters: dose 2 mg/kg, route intravenous; conditions: in vivo
[11] = Fraction unbound in rat plasma; format: ADME, cell-free
Progesterone receptor [12] = molecular target: T1, Progesterone receptor (Homo sapiens, UniProt P06401); test: Antagonist activity at progesterone receptor by cellular reporter gene assay; format: functional
T1 sequence (P06401 whole entry): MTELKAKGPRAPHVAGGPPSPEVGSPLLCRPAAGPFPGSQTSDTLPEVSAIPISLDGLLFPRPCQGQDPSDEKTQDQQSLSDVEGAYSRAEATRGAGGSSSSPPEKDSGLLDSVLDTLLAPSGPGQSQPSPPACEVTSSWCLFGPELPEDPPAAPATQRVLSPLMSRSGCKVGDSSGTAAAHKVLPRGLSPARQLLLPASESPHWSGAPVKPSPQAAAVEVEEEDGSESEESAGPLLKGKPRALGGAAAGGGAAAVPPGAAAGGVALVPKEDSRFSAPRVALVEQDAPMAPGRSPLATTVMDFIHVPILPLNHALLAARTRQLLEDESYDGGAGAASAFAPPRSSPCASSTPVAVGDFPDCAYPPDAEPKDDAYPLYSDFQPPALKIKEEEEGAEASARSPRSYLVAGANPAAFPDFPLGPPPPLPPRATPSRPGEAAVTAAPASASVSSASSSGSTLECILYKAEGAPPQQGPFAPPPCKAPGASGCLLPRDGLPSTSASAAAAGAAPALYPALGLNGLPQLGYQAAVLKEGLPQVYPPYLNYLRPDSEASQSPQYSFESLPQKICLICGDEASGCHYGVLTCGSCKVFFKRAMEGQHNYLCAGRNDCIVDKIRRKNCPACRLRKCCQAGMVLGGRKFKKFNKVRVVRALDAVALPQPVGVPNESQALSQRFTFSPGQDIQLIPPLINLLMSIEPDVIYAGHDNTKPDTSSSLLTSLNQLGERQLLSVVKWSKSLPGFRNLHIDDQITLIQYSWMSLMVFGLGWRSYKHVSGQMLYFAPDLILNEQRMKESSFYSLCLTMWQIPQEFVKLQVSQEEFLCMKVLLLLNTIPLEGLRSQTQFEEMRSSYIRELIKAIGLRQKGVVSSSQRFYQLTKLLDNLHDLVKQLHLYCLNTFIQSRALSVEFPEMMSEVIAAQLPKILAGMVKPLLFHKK

Glucocorticoid receptor [13] = molecular target: T2, Glucocorticoid receptor (Homo sapiens, UniProt P04150); test: Agonist activity at glucocorticoid receptor by cellular reporter gene assay
T2 sequence (P04150 whole entry): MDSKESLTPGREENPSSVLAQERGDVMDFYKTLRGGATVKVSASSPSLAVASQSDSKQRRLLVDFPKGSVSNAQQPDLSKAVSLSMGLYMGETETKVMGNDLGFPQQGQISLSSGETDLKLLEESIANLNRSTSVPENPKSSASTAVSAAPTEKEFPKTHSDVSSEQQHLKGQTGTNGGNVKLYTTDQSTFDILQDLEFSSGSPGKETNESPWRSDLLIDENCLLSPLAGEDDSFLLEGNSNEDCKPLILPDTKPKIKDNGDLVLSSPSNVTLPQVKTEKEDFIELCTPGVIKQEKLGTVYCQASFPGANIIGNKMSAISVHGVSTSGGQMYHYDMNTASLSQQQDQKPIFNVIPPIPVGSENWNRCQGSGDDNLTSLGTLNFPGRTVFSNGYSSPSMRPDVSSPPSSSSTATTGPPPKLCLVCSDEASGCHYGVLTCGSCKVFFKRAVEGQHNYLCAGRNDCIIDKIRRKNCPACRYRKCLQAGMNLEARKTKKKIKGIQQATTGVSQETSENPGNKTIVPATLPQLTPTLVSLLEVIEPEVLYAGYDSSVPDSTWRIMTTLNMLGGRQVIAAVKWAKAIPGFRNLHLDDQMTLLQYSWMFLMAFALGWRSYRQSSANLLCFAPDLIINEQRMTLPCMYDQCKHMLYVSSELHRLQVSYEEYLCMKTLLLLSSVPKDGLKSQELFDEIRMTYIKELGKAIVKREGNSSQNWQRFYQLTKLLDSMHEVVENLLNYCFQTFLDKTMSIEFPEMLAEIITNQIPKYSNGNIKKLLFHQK

Salmonella typhimurium [14] = test: Mutagenicity in Salmonella typhimurium in presence of liver S9 fraction by non-GLP Ames test; format: toxicity, organism-based; conditions: salmonella enterica subsp. enterica serovar typhimurium
Salmonella typhimurium [15] = test: Mutagenicity in Salmonella typhimurium in absence of liver S9 fraction by non-GLP Ames test; format: toxicity, organism-based; conditions: salmonella enterica subsp. enterica serovar typhimurium
Progesterone receptor [16] = molecular target: T1, Progesterone receptor; test: Antagonist activity against progesterone receptor in human T47D cells by alkaline phosphatase assay; format: functional, cell-based
[17] = Fraction unbound in human plasma; format: ADME, cell-free
Glucocorticoid receptor [18] = molecular target: T2, Glucocorticoid receptor; test: Antagonist activity at glucocorticoid receptor by cellular reporter gene assay; format: functional

| SMILES | Cave (Plasma) | AUC(0-t) [1] | Cmax [2] | bioavailability [3] | half-life [4] | AUC(0-inf) [5] | half-life [6] | Vd [7] | bioavailability [8] | AUC(0-inf) [9] | clearance [10] | fraction unbound [11] | IC50 (Progesterone receptor [12]) | IC50 (Glucocorticoid receptor [13]) | Activity (Salmonella typhimurium [14]) | Activity (Salmonella typhimurium [15]) | IC50 (Progesterone receptor [16]) | fraction unbound [17] | IC50 (Glucocorticoid receptor [18]) |
| --- | --- | --- | --- | --- | --- | --- | --- | --- | --- | --- | --- | --- | --- | --- | --- | --- | --- | --- | --- |
| CCS(=O)(=O)Nc1cc(F)c(-c2ccc(C#N)n2C)c(F)c1 | 3.6 µM | 28500 ng·h/mL | 8.8 µM | 98.5% | 2.3 h | 13000 ng·h/mL | 2 h | 0.5 L/kg | 69% | 13700 ng·h/mL | 2 mL/min/kg | 0.019 | 11.7 nM | > 10000 nM | Non-toxic | Non-toxic | 12 nM | 0.003 |  |
| COC[C@]1(OC)CC[C@H]2[C@@H]3CCC4=CC(=O)CCC4=C3[C@@H](c3ccc(/C=N/O)cc3)C[C@@]21C [ASOPRISNIL] |  |  |  |  |  |  |  |  |  |  |  |  | 0.3 nM |  |  |  | 0.3 nM |  | 120 nM |
